The target in one data set is T1, P450 1A2 (Homo sapiens, UniProt P05177).
T1 sequence (P05177 1-516): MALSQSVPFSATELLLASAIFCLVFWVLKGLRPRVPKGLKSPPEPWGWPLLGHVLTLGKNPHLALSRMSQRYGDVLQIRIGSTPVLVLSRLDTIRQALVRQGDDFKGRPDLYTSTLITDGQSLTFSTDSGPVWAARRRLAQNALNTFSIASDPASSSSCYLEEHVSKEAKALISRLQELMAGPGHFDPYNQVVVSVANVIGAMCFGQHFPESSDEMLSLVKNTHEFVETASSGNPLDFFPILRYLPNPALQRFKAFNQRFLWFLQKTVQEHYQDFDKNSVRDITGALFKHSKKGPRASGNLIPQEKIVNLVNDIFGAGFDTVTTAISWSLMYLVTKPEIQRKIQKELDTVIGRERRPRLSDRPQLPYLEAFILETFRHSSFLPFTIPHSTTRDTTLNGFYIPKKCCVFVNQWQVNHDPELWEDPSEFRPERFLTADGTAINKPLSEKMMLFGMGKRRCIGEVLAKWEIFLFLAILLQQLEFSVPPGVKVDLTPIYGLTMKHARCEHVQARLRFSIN
Nature of the data set: Human liver microsomes, caffeine N3-demethylation. It counts as biochemical. The settings on record: pooled microsomes, 100 μM caffeine. The procedure:
(§1) Human liver tissues were obtained from the University of Chicago Distribution Center of […] (Liver Transplant Procurement and Distribution Service, University of Minnesota, Minneapolis, Minn.), Human Biologics Inc. (Phoenix, Ariz.) and the International Institute for the Advancement of Science (Exton, Pa.). The liver microsomes were prepared by differential centrifugation. Caffeine N3-demethylation (Tassaneeyakul W., Mohammed […]., Veronese M. E., Tukey R. H., Quattrochi […]., and Miners J. O. Caffeine as a probe for human cytochromes P450: Validation using cDNA-expression,immunoinhibition, and microsomal kinetic and inhibitor techniques. Pharmacogenetics, 1992;2:173-183), coumarin 7-hydroxylation ([…]. Metabolism of coumarin by rat, gerbil, and human liver microsomes. Xenobiotica, 1992;22:357-367), tolbutamide hydroxylation (Miners J. O., Smith K. J., Robson […]., Veronese M. E., and Birkett D. J. Tolbutamide hydroxylation by human liver microsomes: Kinetic characterization and relationship to other cytochrome P-450 dependent xenobiotic oxidations. Biochem. Pharmacol., 1988;37:1137-1144), racemic bufurolol 1'-hydroxylation ([…]., Gut […]., and Meyer U. A. […] Anal. […] S. Hydroxylation of chlorzoxazone as a specific probe for human liver cytochrome P-450 IIEI. Chem. Res. […] The reactions were initiated by the additions of 1 mM NADPH and terminated in ice. […]
A general note: Liver microsomes are a subcellular fraction often used to study metabolism.

The target of the next data set is T2, P450 2A6 (Homo sapiens, UniProt P11509).
T2 construct: Pooled human liver microsomes; from tissue; host or cells: human liver microsomes, pool of 6
T2 sequence (P11509 1-494): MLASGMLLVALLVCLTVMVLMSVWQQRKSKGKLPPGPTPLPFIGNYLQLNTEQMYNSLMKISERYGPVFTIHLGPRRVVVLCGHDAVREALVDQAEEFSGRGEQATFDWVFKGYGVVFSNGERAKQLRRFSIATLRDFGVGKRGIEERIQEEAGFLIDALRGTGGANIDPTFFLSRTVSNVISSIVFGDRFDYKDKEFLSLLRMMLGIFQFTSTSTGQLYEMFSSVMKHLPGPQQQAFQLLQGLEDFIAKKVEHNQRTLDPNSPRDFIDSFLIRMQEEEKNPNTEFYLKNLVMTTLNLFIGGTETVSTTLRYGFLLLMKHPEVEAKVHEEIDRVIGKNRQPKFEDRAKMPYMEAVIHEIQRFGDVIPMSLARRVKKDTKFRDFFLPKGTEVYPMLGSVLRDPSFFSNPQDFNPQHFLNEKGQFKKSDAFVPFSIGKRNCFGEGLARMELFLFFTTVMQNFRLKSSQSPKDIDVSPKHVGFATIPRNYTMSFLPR
Put plainly: Human liver microsomes, coumarin 7-hydroxylation. It counts as biochemical. To be noted: pooled microsomes, 4 μM coumarin. The procedure:
as §1

The target of the next data set is T3, P450 2C9 (Homo sapiens, UniProt P11712).
T3 construct: Pooled human liver microsomes; from tissue; host or cells: human liver microsomes, pool of 6
T3 sequence (P11712 whole entry): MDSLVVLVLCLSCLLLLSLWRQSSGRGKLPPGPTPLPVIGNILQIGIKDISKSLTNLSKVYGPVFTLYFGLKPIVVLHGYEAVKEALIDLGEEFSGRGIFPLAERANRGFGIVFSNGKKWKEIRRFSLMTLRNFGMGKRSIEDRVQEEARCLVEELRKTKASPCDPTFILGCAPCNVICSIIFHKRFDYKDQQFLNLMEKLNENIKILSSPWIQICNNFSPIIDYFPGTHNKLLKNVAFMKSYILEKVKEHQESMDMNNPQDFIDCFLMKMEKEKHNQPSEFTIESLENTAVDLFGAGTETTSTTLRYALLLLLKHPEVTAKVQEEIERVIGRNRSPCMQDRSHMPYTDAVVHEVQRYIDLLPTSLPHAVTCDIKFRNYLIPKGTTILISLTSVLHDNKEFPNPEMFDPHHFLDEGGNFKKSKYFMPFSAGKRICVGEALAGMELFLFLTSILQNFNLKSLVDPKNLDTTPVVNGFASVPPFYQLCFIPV
Put plainly: Human liver microsomes, tolbutamide hydroxylation. It counts as biochemical. The settings on record: pooled human liver microsomes. On the procedure: (§2) Human liver tissues were obtained from the University of Chicago Distribution Center of […] (Liver Transplant Procurement and Distribution Service, University of Minnesota, Minneapolis, Minn.), Human Biologics Inc. (Phoenix, Ariz.) and the International Institute for the Advancement of Science (Exton, Pa.). The liver microsomes were prepared by differential centrifugation. […] Anal. […] S. Hydroxylation of chlorzoxazone as a specific probe for human liver cytochrome P-450 IIEI. Chem. Res. […] The reactions were initiated by the additions of 1 mM NADPH and terminated in ice. […] A. Assay of mephenytoin metabolism in human liver microsomes by high-performance liquid chromatography. […] Experimental controls consisted of the complete incubation components without the addition of BG.

Another data set has as its target T4, P450 2D6 (Homo sapiens, UniProt P10635).
T4 construct: Pooled human liver microsomes; from tissue; host or cells: human liver microsomes, pool of 6
Nature of the data set: Human liver microsomes, racemic bufurolol 1′-hydroxylation. Format: biochemical. The settings on record: pooled human liver microsomes. On the procedure:
as §1

Another data set deals with T5, P450 2E1 (Homo sapiens, UniProt P05181).
T5 construct: Pooled human liver microsomes; from tissue; host or cells: human liver microsomes, pool of 6
T5 sequence (P05181 whole entry): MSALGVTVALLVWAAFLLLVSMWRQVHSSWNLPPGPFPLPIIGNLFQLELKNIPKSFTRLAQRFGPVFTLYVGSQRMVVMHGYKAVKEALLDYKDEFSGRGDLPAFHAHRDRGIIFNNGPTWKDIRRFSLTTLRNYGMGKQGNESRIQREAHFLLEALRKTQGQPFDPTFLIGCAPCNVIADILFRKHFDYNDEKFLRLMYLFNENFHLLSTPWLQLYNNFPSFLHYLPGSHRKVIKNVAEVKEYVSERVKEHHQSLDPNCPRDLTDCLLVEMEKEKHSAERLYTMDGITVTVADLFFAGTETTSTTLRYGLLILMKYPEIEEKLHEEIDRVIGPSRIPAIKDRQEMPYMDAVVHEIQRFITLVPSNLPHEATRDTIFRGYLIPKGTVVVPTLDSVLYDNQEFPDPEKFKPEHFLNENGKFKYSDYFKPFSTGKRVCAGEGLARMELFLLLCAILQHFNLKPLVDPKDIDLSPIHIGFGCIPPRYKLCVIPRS
Nature of the data set: Human liver microsomes, chlorzoxazone 6-hydroxylation. The settings on record: pooled human liver microsomes. It counts as biochemical. On the procedure: as §1

Data set [1] addresses T6, P450 3A4 (Homo sapiens, UniProt P08684). Nature of the data set: Human liver microsomes, testosterone 6β-hydroxylation. Format: biochemical. To be noted: pooled human liver microsomes. On the procedure: as §2
Target sequence in this assay (P08684 whole entry): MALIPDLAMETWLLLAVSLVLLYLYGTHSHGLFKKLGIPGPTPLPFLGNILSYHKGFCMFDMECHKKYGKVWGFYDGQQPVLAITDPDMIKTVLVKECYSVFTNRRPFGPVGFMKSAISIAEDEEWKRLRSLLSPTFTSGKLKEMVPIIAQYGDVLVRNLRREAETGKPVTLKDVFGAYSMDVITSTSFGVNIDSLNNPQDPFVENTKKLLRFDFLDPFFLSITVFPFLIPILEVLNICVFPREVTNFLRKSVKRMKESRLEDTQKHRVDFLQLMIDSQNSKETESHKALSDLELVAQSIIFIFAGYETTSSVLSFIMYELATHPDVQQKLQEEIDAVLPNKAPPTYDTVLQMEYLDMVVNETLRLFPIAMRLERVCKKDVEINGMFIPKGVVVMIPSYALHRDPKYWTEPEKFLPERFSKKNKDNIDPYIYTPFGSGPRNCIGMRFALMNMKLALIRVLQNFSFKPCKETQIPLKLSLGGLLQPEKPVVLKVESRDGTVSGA
Another data set addresses T7, P450 2C19 (Homo sapiens, UniProt P33261).
T7 construct: incubated with pooled human liver microsomes; from tissue; host or cells: pooled human liver microsomes
Nature of the data set: Human liver microsomes, (S)-mephenytoin 4′-hydroxylation. It counts as biochemical. The settings on record: pooled human liver microsomes, probe (S)-mephenytoin (50 μM), read-out: P450 2C19 activity inhibited. The procedure: as §1

In data set [2] the target is T6, P450 3A4. Put plainly: BG-mediated inactivation of P450 3A4 in a reconstituted system, testosterone 6β-hydroxylation activity.
Target sequence in this assay (P08684 with tags, fused parts or gaps): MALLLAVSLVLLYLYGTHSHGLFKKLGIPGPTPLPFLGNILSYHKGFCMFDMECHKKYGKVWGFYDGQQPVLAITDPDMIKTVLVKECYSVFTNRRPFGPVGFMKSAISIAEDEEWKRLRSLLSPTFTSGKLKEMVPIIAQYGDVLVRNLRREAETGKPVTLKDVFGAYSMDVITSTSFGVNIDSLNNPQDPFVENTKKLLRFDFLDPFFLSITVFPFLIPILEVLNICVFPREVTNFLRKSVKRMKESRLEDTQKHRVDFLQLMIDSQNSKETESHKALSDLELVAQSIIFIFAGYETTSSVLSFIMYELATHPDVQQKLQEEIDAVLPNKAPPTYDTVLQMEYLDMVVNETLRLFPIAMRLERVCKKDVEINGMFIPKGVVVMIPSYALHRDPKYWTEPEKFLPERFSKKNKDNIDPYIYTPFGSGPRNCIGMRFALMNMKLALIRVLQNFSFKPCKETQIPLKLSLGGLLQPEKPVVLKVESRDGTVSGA
Data set [3] deals with T6, P450 3A4. Nature of the data set: P450 content by reduced-CO difference spectrum after incubation in the reconstituted system. To be noted: 50 μM BG, 15 minutes; for P450: 37° C. Details: A full-length P450 3A4 cDNA (except for the deletion of codons 3-12 at the 5′-end); made in house; host or cells: E. coli MV1304 (pCW vector). Format: biochemical. The procedure: Reactions with various concentrations of BG were initiated by addition of 1 mM NADPH, and terminated on ice. The incubations were performed at 37° C. for the time periods indicated. […] The spectra were recorded between 330 to 700 nm against the diluting buffer as reference on a […] spectrophotometer in the split beam mode.
Target sequence in this assay (P08684 with tags, fused parts or gaps): as above

For data set [4], the target named is T6, P450 3A4. Put plainly: HPLC analysis of BG-inactivated P450 3A4 on a Poros column. It counts as biochemical. More on the design: A full-length P450 3A4 cDNA (except for the deletion of codons 3-12 at the 5′-end); made in house; host or cells: E. coli MV1304 (pCW vector). The source says:
S., Hopkins N. E., Alworth D. A., and Hollenberg P. F. […] The eluate was monitored by UV detection at […], 310, and 405 nm simultaneously.
Target sequence in this assay (P08684 with tags, fused parts or gaps): as above

The mark [5] stands for this setting: human, pH 7.5, probe testosterone (200 μM), 6β-hydroxylation.

T7 sequence (P33261 whole entry): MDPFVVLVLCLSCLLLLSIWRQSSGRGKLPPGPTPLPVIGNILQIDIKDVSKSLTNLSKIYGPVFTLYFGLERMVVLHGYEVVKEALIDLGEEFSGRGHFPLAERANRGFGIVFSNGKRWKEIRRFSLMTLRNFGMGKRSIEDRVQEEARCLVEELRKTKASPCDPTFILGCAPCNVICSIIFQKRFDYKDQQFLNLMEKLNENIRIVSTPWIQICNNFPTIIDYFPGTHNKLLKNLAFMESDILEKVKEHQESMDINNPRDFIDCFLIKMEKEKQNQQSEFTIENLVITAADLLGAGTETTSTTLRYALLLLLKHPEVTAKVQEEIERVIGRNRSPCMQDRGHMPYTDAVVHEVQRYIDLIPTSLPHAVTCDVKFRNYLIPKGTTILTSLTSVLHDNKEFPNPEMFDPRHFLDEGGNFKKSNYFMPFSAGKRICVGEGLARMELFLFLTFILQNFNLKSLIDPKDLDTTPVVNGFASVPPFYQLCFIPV
T4 sequence (P10635 whole entry): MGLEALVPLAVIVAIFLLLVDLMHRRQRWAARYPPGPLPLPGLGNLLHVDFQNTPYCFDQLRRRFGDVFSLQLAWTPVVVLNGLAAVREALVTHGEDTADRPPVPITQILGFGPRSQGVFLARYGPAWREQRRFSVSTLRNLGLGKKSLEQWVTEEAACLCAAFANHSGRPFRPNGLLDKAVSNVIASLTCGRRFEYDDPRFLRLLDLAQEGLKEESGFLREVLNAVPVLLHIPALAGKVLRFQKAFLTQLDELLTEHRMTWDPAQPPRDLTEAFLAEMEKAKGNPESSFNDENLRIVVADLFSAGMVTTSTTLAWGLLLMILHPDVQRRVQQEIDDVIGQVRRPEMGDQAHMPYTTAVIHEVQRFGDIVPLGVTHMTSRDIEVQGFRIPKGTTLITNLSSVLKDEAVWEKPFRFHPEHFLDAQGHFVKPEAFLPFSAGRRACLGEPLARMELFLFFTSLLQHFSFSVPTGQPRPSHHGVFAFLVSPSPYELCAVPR

In general, IC50 refers to the concentration at which inhibition is half-maximal. Take `CC(C)=CCC/C(C)=C/COc1c2ccoc2cc2oc(=O)ccc12` [BG, (E)-4-[(3,7-dimethyl-2,6-octadienyl)oxy]-7H-furo[3,2-g][1]benzopyran-7-one]: the “P450 1A2 activity in human liver microsomes” value on P450 1A2 was “inhibited”. In addition, on P450 2A6, the “P450 2A6 activity in human liver microsomes” value was “inhibited”. The 50% inhibitory concentration (IC50) on P450 2C9 is ~2.4 µM; on P450 2D6, ~3 µM; against P450 2E1, ~3.9 µM; against P450 3A4 [1], ~4.6 µM. Further, the inhibition at 2 μM on P450 2C19 (2 μM BG) was ~71%. Also, the inhibition at 20 μM on P450 2C19 (20 μM BG) was ~100%. The “inactivation of testosterone 6β-hydroxylation activity” value at P450 3A4 [2] (2 μM BG with α-naphathoflavone 6 to 50 μM) is on record as “about 55%”. For the same compound, the “loss of testosterone 6β-hydroxylation activity” value at P450 3A4 [2] (50 μM BG, with NADPH, 37° C., 15 minutes) is recorded as 90%. Also, the “Testosterone 6β-hydroxylation” value is 0.8 nmol/min/nmol on P450 3A4 [2] (BG+/NADPH+, 50 μM BG, 37° C., 15 minutes) and 2.9 nmol/min/nmol on P450 3A4 [2] (BG+/NADPH−, 50 μM BG, 37° C., 15 minutes). For the same compound, the KI (inactivation) on P450 3A4 [2] (setting [5]) came to 7.7 µM. The inhibition at 50 μM against P450 3A4 [2] (setting [5]) was ~60%. The inhibition at […] against P450 3A4 [2] (setting [5]) is ~55%. In addition, the kinact on P450 3A4 [2] (read-out: Kinactivation (maximal rate constant of inactivation)) was 0.005 s⁻¹. For the same compound, on P450 3A4 [2] (reconstituted system), the “Kinactivation (maximal rate constant of inactivation)” value turned out to be 0.3 min⁻¹. Further, at P450 3A4 [3] (with NADPH), the “decrease of P450 content (reduced-CO spectrum)” value is “approximately 40%”. In addition, the results for the P450 at P450 3A4 [3] (BG+/NADPH+) and at P450 3A4 [3] (BG+/NADPH−) were 0.27 nmol/mL and 0.47 nmol/mL, respectively. The “decrease of the amount of apoP450 3A4” value at P450 3A4 [4] (50 μM BG, reverse phase HPLC, vs −NADPH control) is listed as “about 50%”. The heme recovered entry on P450 3A4 [4] (BG inactivated P450 3A4 sample) is reported as “Approximately 90%”. Moreover, the “reductase and cytochrome b5 protein recovered from the column” value on P450 3A4 [4] (compared with −NADPH controls) is on record as ~100%.

Values taken from patent US6509371B1, “Compositions containing Bergamottin for increasing the oral bioavailability of pharmaceutical agents” (Warner-Lambert Company, priority 1997, dated 2003).
